Test results taken from US20140343001A1, “INDOLE DERIVATIVES INHIBITORS OF ENZYME LACTATE DEHYDROGENASE (LDH)” (Universitá di Pisa, priority 2011, published 2014).

biological target: T1, hLDH5 (LDH-A) (Homo sapiens, UniProt P00338); assay: Enzyme inhibition of human lactate dehydrogenase isoform 5; type: biochemical; settings: ranges of values; 37° C., pH 7.4; read-out: inhibitory activity against hLDH5 (Ki)
T1 construct: purchased LEEBIO (USA)
Method: The compounds described in the examples were evaluated in enzymatic assays to assess its inhibitory properties against two human isoforms of lactate dehydrogenase, hLDH5 containing solely the subunit LDH-A (LEEBIO—USA), and the hLDH1 containing only the LDH subunits-B (Sigma Aldrich, USA), in order to verify the selectivity of these compounds.
(for Ki measurements). Such assays were conducted in cells containing 200 μL of a solution comprising the reagents dissolved in phosphate buffer (KH2PO4 and K2HPO4) at pH 7.4.
IC50 values were calculated as described below. […] Seven different concentrations (in duplicate for each concentration) of compound were used to generate a concentration-response curve. […] Compound solutions were dispensed in 96-well plates (8 μL), then substrate and cofactor dissolved in buffer (152 μl) and enzyme solution (40 μl) were finally added. Dilution of the enzyme stock solution was made to allow a 10% consumption of the cofactor after 15 min. The eventual background fluorescence of the tested compounds or quenching of the NADH fluorescence by the tested compounds was subtracted. In addition to the compound test wells, each plate contained maximum and minimum controls. Assay plates were incubated at room temperature for 15 min and the final measurements were performed using Victor X3 Microplates reader (PerkinElmer®) at a fluorescence emission wavelength of 460 nm (excitation at 340 nm). IC50 were generated using the curve-fitting tool of GraphPad Prism].
The resulting data of enzymatic kinetic (the constants of Michaelis-Menten) were determined by analysis of non-linear regression.

Row | Ki [µM] | SMILES
1 | 10 to 100 | O=C(O)c1cc2c(C(F)(F)F)cc(-c3ccccc3)cc2n1O[C@@H]1O[C@H](CO)[C@@H](O)[C@H](O)[C@H]1O [Example 2, 6-phenyl-1-(β-D-glucopyranosyl)oxy-4-(trifluoromethyl)-1H-indole-2-carboxylic acid]
2 | 1 to 10 | COC(=O)c1cc2c(C(F)(F)F)cc(-c3ccc(OC(F)(F)F)cc3)cc2n1O [Example 18, methyl 1-hydroxy-4-(trifluoromethyl)-6-(4-(trifluoromethoxy)phenyl)-1H-indole-2-carboxylate]
3 | 0.5 to 5 | O=C(O)c1cc2c(C(F)(F)F)cc(-c3ccc(OC(F)(F)F)cc3)cc2n1O [Example 24, 1-hydroxy-4-(trifluoromethyl)-6-(4-(trifluoromethoxy)phenyl)-1H-indole-2-carboxylic acid]
4 | 1 to 10 | O=C(O)c1cc2c(C(F)(F)F)cc(-c3ccc(Cl)c(Cl)c3)cc2n1O [Example 27, 6-(3,4-dichlorophenyl)-1-hydroxy-4-(trifluoromethyl)-1H-indole-2-carboxylic acid]
5 | 1 to 10 | O=C(O)c1cc2c(C(F)(F)F)cc(-c3cccc(Cl)c3Cl)cc2n1O [Example 37, 6-(2,3-dichlorophenyl)-1-hydroxy-4-(trifluoromethyl)-1H-indole-2-carboxylic acid]
6 | 5 to 25 | O=C(O)c1cc2c(C(F)(F)F)cc(-c3cc(Cl)ccc3Cl)cc2n1O [Example 39, 6-(2,5-dichlorophenyl)-1-hydroxy-4-(trifluoromethyl)-1H-indole-2-carboxylic acid]
7 | 10 to 100 | COC(=O)c1cc2c(F)cc(-c3ccccc3)cc2n1O [Example 51, methyl 4-fluoro-1-hydroxy-6-phenyl-1H-indole-2-carboxylate]
8 | 5 to 25 | O=C(O)c1cc2c(F)cc(-c3ccccc3)cc2n1O [Example 52, 4-fluoro-1-hydroxy-6-phenyl-1H-indole-2-carboxylic acid]
9 | 5 to 25 | O=C(O)c1cc2c(F)cc(-c3ccc(Cl)cc3Cl)cc2n1O [Example 54, 6-(2,4-dichlorophenyl)-4-fluoro-1-hydroxy-1H-indole-2-carboxylic acid]

same assay, conditions: ranges of values; room temperature, pH 7.4; read-out: inhibitory activity against hLDH5 (IC50)

Row | SMILES | IC50 [µM]
10 | CC(C)OC(=O)c1cc2c(C(F)(F)F)cc(-c3ccc(Cl)cc3Cl)cc2n1O[C@@H]1O[C@H](CO)[C@@H](O)[C@H](O)[C@H]1O [Example 45, isopropyl 6-(2,4-dichlorophenyl)-1-(β-D-glucopyranosyl)oxy-4-(trifluoromethyl)-1H-indole-2-carboxylate] | > 100
11 | CCCCOC(=O)c1cc2c(C(F)(F)F)cc(-c3ccc(Cl)cc3Cl)cc2n1O[C@@H]1O[C@H](COC(C)=O)[C@@H](OC(C)=O)[C@H](OC(C)=O)[C@H]1OC(C)=O [Example 46, butyl 6-(2,4-dichlorophenyl)-1-(β-d-2,3,4,6-tetra-O-acetylglucopyranosyl)oxy-4-(trifluoromethyl)-1H-indole-2-carboxylate] | > 100
12 | CCCCOC(=O)c1cc2c(C(F)(F)F)cc(-c3ccc(Cl)cc3Cl)cc2n1O[C@@H]1O[C@H](CO)[C@@H](O)[C@H](O)[C@H]1O [Example 47, butyl 6-(2,4-dichlorophenyl)-1-(β-D-glucopyranosyl)oxy-4-(trifluoromethyl)-1H-indole-2-carboxylate] | > 100
13 | CN1CCC(OC(=O)c2cc3c(C(F)(F)F)cc(-c4ccccc4)cc3n2O)CC1 [Example 57, 1-methylpiperidin-4-yl 1-hydroxy-6-phenyl-4-(trifluoromethyl)-1H-indole-2-carboxylate] | > 100
14 | CN1CCC(OC(=O)c2cc3c(C(F)(F)F)cc(-c4ccc(Cl)cc4Cl)cc3n2O)CC1 [Example 58, 1-methylpiperidin-4-yl 6-(2,4-dichlorophenyl)-1-hydroxy-4-(trifluoromethyl)-1H-indole-2-carboxylate] | > 100

Second part, the compound after the results:

Row | IC50 [µM] | SMILES
15 | 50 to 500 | COC(=O)c1cc2c(C(F)(F)F)cc(-c3ccccc3)cc2n1O[C@@H]1O[C@H](COC(C)=O)[C@@H](OC(C)=O)[C@H](OC(C)=O)[C@H]1OC(C)=O [Example 5, methyl 6-phenyl-1-(β-d-2,3,4,6-tetra-O-acetylglucopyranosyl)oxy-4-(trifluoromethyl)-1H-indole-2-carboxylate]
16 | 50 to 500 | CCOC(=O)c1cc2c(C(F)(F)F)cc(-c3ccccc3)cc2n1O[C@@H]1O[C@H](CO)[C@@H](O)[C@H](O)[C@H]1O [Example 6, ethyl 6-phenyl-1-(β-D-glucopyranosyl)oxy-4-(trifluoromethyl)-1H-indole-2-carboxylate]
17 | > 100 | CCOC(=O)c1cc2c(C(F)(F)F)cc(-c3ccccc3)cc2n1O[C@@H]1O[C@H](COC(C)=O)[C@@H](OC(C)=O)[C@H](OC(C)=O)[C@H]1OC(C)=O [Example 7, ethyl 6-phenyl-1-(β-d-2,3,4,6-tetra-O-acetylglucopyranosyl)oxy-4-(trifluoromethyl)-1H-indole-2-carboxylate]
18 | > 100 | COC(=O)c1cc2c(C(F)(F)F)cc(-c3ccc(Cl)cc3Cl)cc2n1O[C@@H]1O[C@H](COC(C)=O)[C@@H](OC(C)=O)[C@H](OC(C)=O)[C@H]1OC(C)=O [Example 11, methyl 6-(2,4-dichlorophenyl)-1-(β-d-2,3,4,6-tetra-O-acetylglucopyranosyl)oxy-4-(trifluoromethyl)-1H-indole-2-carboxylate]
19 | 50 to 500 | CCOC(=O)c1cc2c(C(F)(F)F)cc(-c3ccc(Cl)cc3Cl)cc2n1O[C@@H]1O[C@H](CO)[C@@H](O)[C@H](O)[C@H]1O [Example 12, ethyl 6-(2,4-dichlorophenyl)-1-(β-D-glucopyranosyl)oxy-4-(trifluoromethyl)-1H-indole-2-carboxylate]
20 | > 100 | CCOC(=O)c1cc2c(C(F)(F)F)cc(-c3ccc(Cl)cc3Cl)cc2n1O[C@@H]1O[C@H](COC(C)=O)[C@@H](OC(C)=O)[C@H](OC(C)=O)[C@H]1OC(C)=O [Example 13, ethyl 6-(2,4-dichlorophenyl)-1-(β-d-2,3,4,6-tetra-O-acetylglucopyranosyl)oxy-4-(trifluoromethyl)-1H-indole-2-carboxylate]
21 | 1 to 10 | COC(=O)c1cc2c(C(F)(F)F)cc(-c3ccccc3)c(-c3ccccc3)c2n1O [Example 14, methyl 1-hydroxy-6,7-diphenyl-4-(trifluoromethyl)-1H-indole-2-carboxylate]
22 | 1 to 10 | COC(=O)c1c(C)c2c(C(F)(F)F)cc(-c3ccccc3)cc2n1O [Example 16, methyl 1-hydroxy-6-phenyl-3-methyl-4-(trifluoromethyl)-1H-indole-2-carboxylate]
23 | 1 to 10 | COC(=O)c1c(C)c2c(C(F)(F)F)cc(-c3ccc(Cl)cc3Cl)cc2n1O [Example 20, methyl 6-(2,4-dichlorophenyl)-1-hydroxy-3-methyl-4-(trifluoromethyl)-1H-indole-2-carboxylate]
24 | > 100 | COC(=O)c1cc2c(C(F)(F)F)cc(-c3ccc(Cl)c(Cl)c3)cc2n1O [Example 21, methyl 6-(3,4-dichlorophenyl)-1-hydroxy-4-(trifluoromethyl)-1H-indole-2-carboxylate]
25 | 1 to 10 | Cc1c(C(=O)O)n(O)c2cc(-c3ccc(Cl)cc3Cl)cc(C(F)(F)F)c12 [Example 26, 6-(2,4-dichlorophenyl)-1-hydroxy-3-methyl-4-(trifluoromethyl)-1H-indole-2-carboxylic acid]
26 | > 100 | CCCCOC(=O)c1cc2c(C(F)(F)F)cc(-c3ccccc3)cc2n1O[C@@H]1O[C@H](COC(C)=O)[C@@H](OC(C)=O)[C@H](OC(C)=O)[C@H]1OC(C)=O [Example 28, butyl 6-phenyl-1-(β-D-2,3,4,6-tetra-O-acetylglucopyranosyl)oxy-4-(trifluoromethyl)-1H-indole-2-carboxylate]
27 | > 100 | CC(=O)OC[C@H]1O[C@@H](On2c(C(=O)OC(C)C)cc3c(C(F)(F)F)cc(-c4ccc(Cl)cc4Cl)cc32)[C@H](OC(C)=O)[C@@H](OC(C)=O)[C@@H]1OC(C)=O [Example 44, isopropyl 6-(2,4-dichlorophenyl)-1-(β-d-2,3,4,6-tetra-O-acetylglucopyranosyl)oxy-4-(trifluoromethyl)-1H-indole-2-carboxylate]
28 | 0.01 to 1 | CC(C)(C)C1CCC(OC(=O)c2cc3c(C(F)(F)F)cc(-c4ccccc4)cc3n2O)CC1 (stereo not shown) [Example 49, 4-(tert-butyl)cyclohexyl 1-hydroxy-6-phenyl-4-(trifluoromethyl)-1H-indole-2-carboxylate]
29 | 0.01 to 1 | CC(C)(C)C1CCC(OC(=O)c2cc3c(C(F)(F)F)cc(-c4ccc(Cl)cc4Cl)cc3n2O)CC1 (stereo not shown) [Example 50, 4-(tert-butyl)cyclohexyl 6-(2,4-dichlorophenyl)-1-hydroxy-4-(trifluoromethyl)-1H-indole-2-carboxylate]
30 | 0.01 to 1 | O=C(OCc1ccccc1)c1cc2c(C(F)(F)F)cc(-c3ccc(Cl)cc3Cl)cc2n1O [Example 55, benzyl 6-(2,4-dichlorophenyl)-1-hydroxy-4-(trifluoromethyl)-1H-indole-2-carboxylate]
31 | 0.01 to 1 | O=C(OCc1ccc(-c2ccccc2)cc1)c1cc2c(C(F)(F)F)cc(-c3ccc(Cl)cc3Cl)cc2n1O [Example 56, [1,1′-biphenyl]-4-ylmethyl 6-(2,4-dichlorophenyl)-1-hydroxy-4-(trifluoromethyl)-1H-indole-2-carboxylate]
